# Results published in the kinase profiling compilation of Christmann-Franck et al. (2016).
# Key:
# Test in all cases: KINOMEscan competition binding
# Details in all cases: compound 10.0 µM
# [1] = target: PRKACB (human) (UniProt P22694)
# [2] = target: STK24 (human) (UniProt Q9Y6E0)
# [3] = target: NEK4 (human) (UniProt P51957)
# [4] = target: MAP4K2 (human) (UniProt Q12851)
# [5] = target: PAK2 (human) (UniProt Q13177)
# [6] = target: ZAP70 (human) (UniProt P43403)
# [7] = target: ERBB4 (human) (UniProt Q15303)
# [8] = target: NEK3 (human) (UniProt P51956)
# [9] = target: PI4KB (human) (UniProt Q9UBF8)
# [10] = target: HCK (human) (UniProt P08631)
# [11] = target: RIPK1 (human) (UniProt Q13546)
# [12] = target: IRAK3 (human) (UniProt Q9Y616)
# [13] = target: CSNK1D (human) (UniProt P48730)
# [14] = target: EPHB2 (human) (UniProt P29323)
# [15] = target: TYK2 JH1 catalytic (human) (UniProt P29597)
# [16] = target: CHEK2 (human) (UniProt O96017)
# [17] = target: RPS6KA4 KD2 (human) (UniProt O75676)
# [18] = target: MAP3K12 (human) (UniProt Q12852)
# [19] = target: MAPK13 (human) (UniProt O15264)
# [20] = target: LTK (human) (UniProt P29376)
# [21] = target: STK4 (human) (UniProt Q13043)
# [22] = target: JAK1 JH2 pseudokinase (human) (UniProt P23458)
# [23] = target: PAK6 (human) (UniProt Q9NQU5)
# [24] = target: ACVR1 (human) (UniProt Q04771)
# [25] = target: CDKL3 (human) (UniProt Q8IVW4)
# [26] = target: MAP4K4 (human) (UniProt O95819)
# [27] = target: PRKD1 (human) (UniProt Q15139)
# [28] = target: MAP3K10 (human) (UniProt Q02779)
# [29] = target: PAK3 (human) (UniProt O75914)
# [30] = target: ACVR2B (human) (UniProt Q13705)
# [31] = target: STK33 (human) (UniProt Q9BYT3)
# [32] = target: CLK4 (human) (UniProt Q9HAZ1)
# [33] = target: CAMKK2 (human) (UniProt Q96RR4)
# [34] = target: CDKL2 (human) (UniProt Q92772)
# [35] = target: MARK3 (human) (UniProt P27448)
# [36] = target: RPS6KA1 KD1 (human) (UniProt Q15418)
# [37] = target: MAPK9 (human) (UniProt P45984)
# [38] = target: CAMK1G (human) (UniProt Q96NX5)
# [39] = target: IKBKE (human) (UniProt Q14164)
# [40] = target: MLTK (human) (UniProt Q9NYL2)
# Chain of CLK4 (human) (Q9HAZ1 whole entry, looked up): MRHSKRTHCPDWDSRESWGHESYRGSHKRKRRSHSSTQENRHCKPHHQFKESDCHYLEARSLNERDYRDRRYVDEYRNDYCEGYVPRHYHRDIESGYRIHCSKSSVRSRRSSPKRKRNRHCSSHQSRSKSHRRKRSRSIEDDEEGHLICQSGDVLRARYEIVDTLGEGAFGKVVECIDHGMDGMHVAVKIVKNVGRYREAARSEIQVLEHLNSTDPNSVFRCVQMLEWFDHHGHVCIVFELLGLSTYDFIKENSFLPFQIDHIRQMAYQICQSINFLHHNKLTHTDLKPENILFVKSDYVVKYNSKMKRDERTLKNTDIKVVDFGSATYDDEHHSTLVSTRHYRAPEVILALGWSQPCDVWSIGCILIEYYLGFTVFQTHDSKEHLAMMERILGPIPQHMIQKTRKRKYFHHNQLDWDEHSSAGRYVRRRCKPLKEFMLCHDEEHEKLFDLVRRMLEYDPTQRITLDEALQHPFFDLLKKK
# Chain of RIPK1 (human) (Q13546 whole entry, looked up): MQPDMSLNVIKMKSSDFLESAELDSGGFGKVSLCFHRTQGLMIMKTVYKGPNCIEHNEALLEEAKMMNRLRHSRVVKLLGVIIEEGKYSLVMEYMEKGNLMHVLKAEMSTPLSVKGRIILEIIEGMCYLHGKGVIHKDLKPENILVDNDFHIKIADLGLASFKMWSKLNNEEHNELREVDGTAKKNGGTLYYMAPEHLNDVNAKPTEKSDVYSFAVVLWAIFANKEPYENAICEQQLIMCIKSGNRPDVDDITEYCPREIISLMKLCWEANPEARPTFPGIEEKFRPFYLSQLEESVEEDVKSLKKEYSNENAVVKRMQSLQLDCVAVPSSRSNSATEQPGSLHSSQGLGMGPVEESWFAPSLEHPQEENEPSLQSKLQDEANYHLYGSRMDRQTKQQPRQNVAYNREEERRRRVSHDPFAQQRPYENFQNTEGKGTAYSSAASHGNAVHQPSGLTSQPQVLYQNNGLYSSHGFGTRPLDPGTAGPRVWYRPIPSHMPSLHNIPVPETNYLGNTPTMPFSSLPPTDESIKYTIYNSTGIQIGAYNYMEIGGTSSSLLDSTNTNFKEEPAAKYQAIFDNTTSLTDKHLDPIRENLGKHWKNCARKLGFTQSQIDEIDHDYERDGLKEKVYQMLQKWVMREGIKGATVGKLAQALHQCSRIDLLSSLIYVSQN
# Chain of EPHB2 (human) (P29323 whole entry, looked up): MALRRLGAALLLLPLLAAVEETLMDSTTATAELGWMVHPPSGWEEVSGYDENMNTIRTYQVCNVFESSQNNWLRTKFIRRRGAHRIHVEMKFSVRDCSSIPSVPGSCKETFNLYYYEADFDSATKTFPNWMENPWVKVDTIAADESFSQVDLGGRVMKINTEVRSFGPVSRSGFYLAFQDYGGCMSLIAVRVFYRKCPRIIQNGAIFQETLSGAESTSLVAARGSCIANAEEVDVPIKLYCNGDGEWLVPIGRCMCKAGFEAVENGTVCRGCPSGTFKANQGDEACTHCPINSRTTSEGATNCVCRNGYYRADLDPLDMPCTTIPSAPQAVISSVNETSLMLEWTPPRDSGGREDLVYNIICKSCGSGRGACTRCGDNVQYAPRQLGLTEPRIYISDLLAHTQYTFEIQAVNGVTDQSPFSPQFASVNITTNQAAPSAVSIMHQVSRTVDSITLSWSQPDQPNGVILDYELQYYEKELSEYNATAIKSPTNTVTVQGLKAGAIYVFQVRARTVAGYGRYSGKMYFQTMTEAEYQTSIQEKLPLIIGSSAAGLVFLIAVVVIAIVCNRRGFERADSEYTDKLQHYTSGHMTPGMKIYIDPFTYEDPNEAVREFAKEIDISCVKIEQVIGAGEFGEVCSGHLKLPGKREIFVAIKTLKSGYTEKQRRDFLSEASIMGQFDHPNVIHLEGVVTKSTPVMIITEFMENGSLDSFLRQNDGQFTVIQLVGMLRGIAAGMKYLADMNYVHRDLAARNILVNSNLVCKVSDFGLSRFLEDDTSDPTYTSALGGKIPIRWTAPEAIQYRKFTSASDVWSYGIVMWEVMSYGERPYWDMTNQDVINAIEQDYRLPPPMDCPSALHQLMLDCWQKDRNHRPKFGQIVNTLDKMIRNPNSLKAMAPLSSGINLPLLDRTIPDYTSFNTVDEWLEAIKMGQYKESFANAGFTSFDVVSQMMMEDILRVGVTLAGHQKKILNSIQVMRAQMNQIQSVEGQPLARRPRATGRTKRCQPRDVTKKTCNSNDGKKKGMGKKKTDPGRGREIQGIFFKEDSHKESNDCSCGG
# Chain of MARK3 (human) (P27448 whole entry, looked up): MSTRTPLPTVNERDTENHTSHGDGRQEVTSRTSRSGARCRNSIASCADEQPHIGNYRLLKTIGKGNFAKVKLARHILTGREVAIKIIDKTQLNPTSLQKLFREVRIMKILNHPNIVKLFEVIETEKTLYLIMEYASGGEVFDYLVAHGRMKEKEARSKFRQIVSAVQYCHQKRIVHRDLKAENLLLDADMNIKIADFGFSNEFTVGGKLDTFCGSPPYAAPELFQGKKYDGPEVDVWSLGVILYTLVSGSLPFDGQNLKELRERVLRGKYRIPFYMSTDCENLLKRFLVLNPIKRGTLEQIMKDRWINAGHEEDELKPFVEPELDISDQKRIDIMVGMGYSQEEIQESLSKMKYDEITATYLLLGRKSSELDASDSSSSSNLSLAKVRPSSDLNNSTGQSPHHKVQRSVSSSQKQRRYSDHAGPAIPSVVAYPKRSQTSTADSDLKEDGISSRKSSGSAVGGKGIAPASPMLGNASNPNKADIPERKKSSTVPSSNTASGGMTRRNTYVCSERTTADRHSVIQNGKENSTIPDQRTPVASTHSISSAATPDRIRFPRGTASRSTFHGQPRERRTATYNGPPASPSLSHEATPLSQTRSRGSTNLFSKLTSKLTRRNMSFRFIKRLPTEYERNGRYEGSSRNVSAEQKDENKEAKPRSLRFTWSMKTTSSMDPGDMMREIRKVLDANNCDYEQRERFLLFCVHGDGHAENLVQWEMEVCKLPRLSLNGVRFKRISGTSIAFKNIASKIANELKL
# Chain of NEK4 (human) (P51957 whole entry, looked up): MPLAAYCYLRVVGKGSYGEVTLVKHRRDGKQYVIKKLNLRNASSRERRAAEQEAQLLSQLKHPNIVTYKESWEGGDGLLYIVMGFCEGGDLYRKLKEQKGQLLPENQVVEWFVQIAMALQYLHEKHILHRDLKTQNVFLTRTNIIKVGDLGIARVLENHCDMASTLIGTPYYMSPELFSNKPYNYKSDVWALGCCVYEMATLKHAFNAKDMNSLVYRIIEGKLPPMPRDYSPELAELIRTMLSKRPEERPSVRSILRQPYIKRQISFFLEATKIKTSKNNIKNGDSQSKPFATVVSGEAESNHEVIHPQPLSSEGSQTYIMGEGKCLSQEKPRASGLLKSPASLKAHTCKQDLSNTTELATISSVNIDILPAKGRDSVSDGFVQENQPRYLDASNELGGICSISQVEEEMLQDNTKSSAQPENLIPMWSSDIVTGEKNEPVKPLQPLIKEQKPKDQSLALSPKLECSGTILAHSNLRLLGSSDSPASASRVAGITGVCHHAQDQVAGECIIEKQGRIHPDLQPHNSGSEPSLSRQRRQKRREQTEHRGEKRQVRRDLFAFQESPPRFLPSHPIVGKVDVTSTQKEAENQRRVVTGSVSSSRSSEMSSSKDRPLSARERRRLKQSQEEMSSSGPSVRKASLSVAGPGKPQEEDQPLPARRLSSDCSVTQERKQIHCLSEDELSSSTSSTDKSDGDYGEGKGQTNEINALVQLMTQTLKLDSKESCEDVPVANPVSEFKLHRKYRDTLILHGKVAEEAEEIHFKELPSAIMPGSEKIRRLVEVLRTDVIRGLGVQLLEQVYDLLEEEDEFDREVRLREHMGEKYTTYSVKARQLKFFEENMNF
# Chain of CDKL3 (human) (Q8IVW4 whole entry, looked up): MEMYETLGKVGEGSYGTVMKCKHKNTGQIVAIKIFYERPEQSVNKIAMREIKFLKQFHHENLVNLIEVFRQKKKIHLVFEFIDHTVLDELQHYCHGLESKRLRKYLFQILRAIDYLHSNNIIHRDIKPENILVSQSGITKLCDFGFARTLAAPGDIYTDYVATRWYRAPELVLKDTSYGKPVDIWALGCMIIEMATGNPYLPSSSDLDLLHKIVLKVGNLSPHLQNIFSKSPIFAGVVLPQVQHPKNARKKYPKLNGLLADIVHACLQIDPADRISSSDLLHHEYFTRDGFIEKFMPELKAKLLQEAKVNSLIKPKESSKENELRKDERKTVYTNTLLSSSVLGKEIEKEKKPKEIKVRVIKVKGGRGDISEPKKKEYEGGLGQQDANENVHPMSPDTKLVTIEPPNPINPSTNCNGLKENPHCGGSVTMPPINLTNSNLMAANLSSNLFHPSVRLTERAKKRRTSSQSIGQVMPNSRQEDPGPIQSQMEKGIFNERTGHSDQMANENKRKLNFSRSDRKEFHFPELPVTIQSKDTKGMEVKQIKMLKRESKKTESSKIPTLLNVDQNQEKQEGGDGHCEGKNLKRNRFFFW
# Chain of CAMKK2 (human) (Q96RR4 whole entry, looked up): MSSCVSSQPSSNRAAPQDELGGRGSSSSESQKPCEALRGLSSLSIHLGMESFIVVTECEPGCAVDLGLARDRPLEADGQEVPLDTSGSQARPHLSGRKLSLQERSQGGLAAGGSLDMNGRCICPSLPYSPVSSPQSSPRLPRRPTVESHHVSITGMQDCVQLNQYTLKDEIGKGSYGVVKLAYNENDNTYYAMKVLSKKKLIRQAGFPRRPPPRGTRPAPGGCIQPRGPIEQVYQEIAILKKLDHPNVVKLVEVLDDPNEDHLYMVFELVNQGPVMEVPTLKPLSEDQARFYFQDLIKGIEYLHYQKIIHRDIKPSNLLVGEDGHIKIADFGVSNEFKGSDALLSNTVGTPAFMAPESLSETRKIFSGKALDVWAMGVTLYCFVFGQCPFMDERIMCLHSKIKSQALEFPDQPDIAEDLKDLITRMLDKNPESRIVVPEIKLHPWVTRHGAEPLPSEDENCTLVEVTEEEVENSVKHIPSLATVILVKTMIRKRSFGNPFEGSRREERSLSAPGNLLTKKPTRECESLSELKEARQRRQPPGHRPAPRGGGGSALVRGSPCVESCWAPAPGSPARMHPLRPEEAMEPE
Compound,"kinase still bound, per cent of control [1] [%]","kinase still bound, per cent of control [2] [%]","kinase still bound, per cent of control [3] [%]","kinase still bound, per cent of control [4] [%]","kinase still bound, per cent of control [5] [%]","kinase still bound, per cent of control [6] [%]","kinase still bound, per cent of control [7] [%]","kinase still bound, per cent of control [8] [%]","kinase still bound, per cent of control [9] [%]","kinase still bound, per cent of control [10] [%]","kinase still bound, per cent of control [11] [%]","kinase still bound, per cent of control [12] [%]","kinase still bound, per cent of control [13] [%]","kinase still bound, per cent of control [14] [%]","kinase still bound, per cent of control [15] [%]","kinase still bound, per cent of control [16] [%]","kinase still bound, per cent of control [17] [%]","kinase still bound, per cent of control [18] [%]","kinase still bound, per cent of control [19] [%]","kinase still bound, per cent of control [20] [%]",further results
O=C(Nc1cccc(Nc2ncc(Br)c(NCCc3cnc[nH]3)n2)c1)N1CCCC1,1,2,9.4,0.15,45,7.1,56,6.8,35,42,18,0.7,73,100,0,24,0.95,21,11,66,"kinase still bound, per cent of control [21]: 12%; kinase still bound, per cent of control [22]: 0.2%; kinase still bound, per cent of control [23]: 11%; kinase still bound, per cent of control [24]: 76%; kinase still bound, per cent of control [25]: 75%; kinase still bound, per cent of control [26]: 2.4%; kinase still bound, per cent of control [27]: 0.65%; kinase still bound, per cent of control [28]: 0%; kinase still bound, per cent of control [29]: 2.6%; kinase still bound, per cent of control [30]: 4.9%; kinase still bound, per cent of control [31]: 0.8%; kinase still bound, per cent of control [32]: 28%; kinase still bound, per cent of control [33]: 2%; kinase still bound, per cent of control [34]: 4.7%; kinase still bound, per cent of control [35]: 0.3%; kinase still bound, per cent of control [36]: 4.3%; kinase still bound, per cent of control [37]: 0.3%; kinase still bound, per cent of control [38]: 28%; kinase still bound, per cent of control [39]: 4.6%; kinase still bound, per cent of control [40]: 12%"
COc1ccc(N(C(=O)Oc2c(C)cccc2C)c2ccnc(Nc3ccc(N4CCN(C)CC4)cc3)n2)c(OC)c1,2.5,52,74,1.6,58,79,0.75,100,100,0.15,63,19,82,0,45,78,100,73,100,1.2,"kinase still bound, per cent of control [21]: 42%; kinase still bound, per cent of control [22]: 84%; kinase still bound, per cent of control [23]: 71%; kinase still bound, per cent of control [24]: 0%; kinase still bound, per cent of control [25]: 0.1%; kinase still bound, per cent of control [26]: 3.7%; kinase still bound, per cent of control [27]: 9.3%; kinase still bound, per cent of control [28]: 19%; kinase still bound, per cent of control [29]: 4%; kinase still bound, per cent of control [30]: 1.8%; kinase still bound, per cent of control [31]: 28%; kinase still bound, per cent of control [32]: 100%; kinase still bound, per cent of control [33]: 56%; kinase still bound, per cent of control [34]: 0.5%; kinase still bound, per cent of control [35]: 4.8%; kinase still bound, per cent of control [36]: 58%; kinase still bound, per cent of control [37]: 2.6%; kinase still bound, per cent of control [38]: 73%; kinase still bound, per cent of control [39]: 78%; kinase still bound, per cent of control [40]: 24%"
